Counter-ions that a name gives are not always drawn. Like-named read-outs stand apart in the source and are kept apart here. Each block holds one compound with its values, some of them ahead of it.
Key:
VZV = test: In vitro antiviral test, 50% plaque formation inhibition, anti-VZV activity; assay type: cell-based, varicella-zoster virus (VZV)
Method: (§1) The compounds of the present invention were measured for their in vitro antiviral activity (anti-HSV-1 activity, anti-VZV activity) by using human fetal lung-derived cells in an assay for 50% plaque formation inhibition (Japanese Journal of Chemotherapy, Vol. 38, No. 3, 256-261, 1990).

[1] = test system: HSV-1 infection in mouse skin; test: In vivo antiviral test, HSV-1 mouse skin infection model (creams); settings: HSV-1-infected mice, cream; for Incidence rate: affected/total animals
Method: Creams were prepared for the compounds of the present invention according to Formulation Example 2 and tested for their therapeutic effect on HSV-1 infection in mouse skin. Moreover, skin symptoms in the HSV-1-infected mice were scored (Antiviral Research, 17, 133-143, 1992), and the time course of changes in their average lesion scores is shown in FIG. 1.
According to the ratio indicated above, creams were prepared in a routine manner and provided for Pharmacological Test Example 2.

[2] = test system: herpes simplex virus type 1 (HSV-1) and varicella-zoster virus (VZV); settings: Patent Document 1; cited from earlier work
HSV-1 = test: In vitro antiviral test, 50% plaque formation inhibition, anti-HSV-1 activity; assay type: cell-based, herpes simplex virus type 1 (HSV-1)
Method: as §1

uninfected cells = settings: cited from earlier work
HSV-1 infection in mice = settings: compared with acyclovir; Non-patent Document 1; cited from earlier work
[3] = Human alphaherpesvirus 3, 50% plaque formation inhibition, human fetal lung-derived cells, read-out: Anti-VZV activity (ED50)
[4] = Human alphaherpesvirus 1, effective concentration required to reduce the number of plaques to 50%, human fetal lung-derived cells, read-out: Anti-HSV-1 activity (ED50)
[5] = Human alphaherpesvirus 3, read-out: Anti-VZV activity (ED50)
[6] = Human alphaherpesvirus 1, read-out: Anti-HSV-1 activity (ED50)

SMILES: O=c1[nH]c(=O)n([C@@H]2O[C@H](CO)[C@@H](O)[C@@H]2O)cc1/C=C/Cl [CVAU, 1-β-D-arabinofuranosyl-(E)-5-(2-chlorovinyl)uracil, reference compound]
- EC50 (VZV; [3]): 8.9 nM
- Incidence rate [1]: 6/8
- Survival rate ([1]; survivors/total animals, chi-square test vs control): 7/8 P < 0.01
- Activity compared with sorivudine [2]: the same activity as sorivudine
- EC50 (HSV-1; [4]): 75 nM

SMILES: CC(C)C(N)C(=O)OCC1OC(n2cc(/C=C/Cl)c(=O)[nH]c2=O)C(O)C1O [Compound 2, 1-[5′-0-(L-valine)-β-D-arabinofuranosyl]-(E)-5-(2-chlorovinyl)uracil hydrochloride]
- EC50 (VZV; [5]): 19 nM
- Incidence rate [1]: 8/8
- EC50 (HSV-1; [6]): 120 nM

SMILES: O=c1[nH]c(=O)n([C@@H]2O[C@H](CO)[C@@H](O)[C@@H]2O)cc1/C=C/Br [Sorivudine, 1-β-D-arabinofuranosyl-(E)-5-(2-bromovinyl)uracil]
- Cytotoxicity (uninfected cells): extremely low
- Usefulness as external formulation for HSV-1 infection in mice (HSV-1 infection in mice): as useful as acyclovir

SMILES: O=C(OCC1OC(n2cc(/C=C/Cl)c(=O)[nH]c2=O)C(O)C1O)C1CCNCC1 [Compound 1, (E)-5-(2-chlorovinyl)-1-[5′-O-(piperidine-4-carboxyl)-β-D-arabinofuranosyl]uracil hydrochloride]
- EC50 (VZV; [5]): 46 nM
- Incidence rate ([1]; hydrochloride): 4/8
- EC50 (HSV-1; [6]): 400 nM

Further lines, results first:

- EC50 (VZV; [3]): 52 nM
- EC50 (HSV-1; [4]): 490 nM
SMILES: O=C(OCC1OC(n2cc(/C=C/Cl)c(=O)[nH]c2=O)C(O)C1O)c1cccnc1 [Compound 3, (E)-5-(2-chlorovinyl)-1-[5′-O-(pyridine-3-carboxyl)-β-D-arabinofuranosyl]uracil hydrochloride]

- EC50 (VZV; [3]): 21 nM
- EC50 (HSV-1; [4]): 130 nM
SMILES: O=C(OCC1OC(n2cc(/C=C/Cl)c(=O)[nH]c2=O)C(O)C1O)c1ccncc1 [Compound 4, (E)-5-(2-chlorovinyl)-1-[5′-O-(pyridine-4-carboxyl)-β-D-arabinofuranosyl]uracil hydrochloride]

- EC50 (VZV; [3]): 47 nM
- EC50 (HSV-1; [4]): 560 nM
SMILES: CN1CCC(C(=O)OCC2OC(n3cc(/C=C/Cl)c(=O)[nH]c3=O)C(O)C2O)CC1 [Compound 5, (E)-5-(2-chlorovinyl)-1-[5′-O—(N-methylpiperidine-4-carboxyl)-β-D-arabinofuranosyl]uracil hydrochloride]

Source: patent US8076302B2, “Pyrimidine nucleoside derivatives and salts thereof” (aRigen Pharmaceuticals, Inc., priority 2007, dated 2011)
